Tests used:
[1] = biological target: RXFP4 (h) (agonist radioligand) (Homo sapiens, UniProt Q8TDU9); experiment: GPCR Biosensor cAMP Hunter assay, RXFP4; format: cell-based
Experimental: Benedin is found to weakly bind with RXFP4 and RXFP3 receptors (Study FR095-0024749-Q Eurofins/leadHunter Jun. 25, 2021; unpublished data) (Table 2).
In these assays' compounds were tested in agonist and antagonist mode with the GPCR Biosensor Assays and match to this design:
1. cAMP Hunter cell lines were expanded from freezer stocks according to standard procedures.
2. Cells were seeded in a total volume of 20 μL into white walled, 384-well microplates and incubated at 37° C. for the appropriate time prior to testing.
3. cAMP modulation was determined using the DiscoverX HitHunter CAMP XS+assay.
1. For agonist determination, cells were incubated with sample in the presence of EC80 forskolin to induce response.
2. Media was aspirated from cells and replaced with 15 μL 2:1 HBSS/10 mM Hepes: CAMP XS+Ab reagent. […]
2. Microplates were read following signal generation with a PerkinElmer Envision™ instrument for chemiluminescent signal detection.
5. For Gi agonist mode assays, percentage activity is calculated using the following formula: % Activity=100%×(1−(mean RLU of test sample-mean RLU of MAX control)/(mean RLU of vehicle control−mean RLU of MAX control)).
8. For Gi antagonist or negative allosteric mode assays, percentage inhibition is calculated using the following formula: % Inhibition=100%×(mean RLU of test sample−mean RLU of EC80 control)/(mean RLU of forskolin positive control−mean RLU of […]

[2] = biological target: T1, Kappa (h) (KOP) (agonist radioligand) (Homo sapiens, UniProt P41145); experiment: Radioligand binding panel (Eurofins/CEREP), kappa opioid; conditions: 10^−5 M; % inhibition of control specific binding; read-out: % Inhibition at 10^−5M Benedin
T1 construct: CEREP (Eurofins, France), contract panel
T1 sequence (P41145 whole entry): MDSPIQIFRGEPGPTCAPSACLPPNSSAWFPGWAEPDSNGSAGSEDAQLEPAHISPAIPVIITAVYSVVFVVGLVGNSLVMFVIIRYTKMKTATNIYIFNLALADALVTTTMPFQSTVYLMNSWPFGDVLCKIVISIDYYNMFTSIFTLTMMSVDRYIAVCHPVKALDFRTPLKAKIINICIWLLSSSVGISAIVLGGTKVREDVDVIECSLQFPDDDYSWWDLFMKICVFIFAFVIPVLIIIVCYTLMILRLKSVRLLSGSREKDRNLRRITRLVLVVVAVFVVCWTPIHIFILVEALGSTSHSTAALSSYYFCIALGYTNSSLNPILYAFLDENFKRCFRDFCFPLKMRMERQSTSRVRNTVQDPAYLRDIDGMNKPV
Experimental: (§1) Benedin was tested at 10^−5 M, calculated as a % inhibition of control specific binding of a radioactively labeled ligand specific for each target.
(§2) This binding profile panel was broadly defined with roughly an equal number of selective, central and peripheral therapeutically relevant targets, including native animal tissues, radioligands and specific enzymes involved in cell cycle regulation in accordance with Eurofins Standard Operating Procedure.
(§3) For radioligand binding experiments, the half maximal inhibitory concentration (IC50) and the half maximal effective concentration (EC50) values were determined (via computer software) by nonlinear regression analysis of the competition curves using Hill equation curve fitting. The inhibition constants (Ki) were calculated using the Cheng-Prusoff equation (Ki=IC50/(1+(L/KD)), where L is the concentration of radioligand in the assay, and KD is the affinity of the radioligand for the receptor.^60
(§4) The results are expressed as a % control specific binding ([measured specific binding/control specific binding]×100) and as a % inhibition of control specific binding (100−[(measured specific binding/control specific binding)×100] obtained in the presence of the test compounds. […]

[3] = biological target: T2, M2 (h) (antagonist radioligand) (Homo sapiens, UniProt P08172); experiment: Radioligand binding panel (Eurofins/CEREP), M2; conditions: 10^−5 M; % inhibition of control specific binding; read-out: % Inhibition at 10^−5M Benedin
T2 construct: CEREP (Eurofins, France), contract panel
T2 sequence (P08172 1-466): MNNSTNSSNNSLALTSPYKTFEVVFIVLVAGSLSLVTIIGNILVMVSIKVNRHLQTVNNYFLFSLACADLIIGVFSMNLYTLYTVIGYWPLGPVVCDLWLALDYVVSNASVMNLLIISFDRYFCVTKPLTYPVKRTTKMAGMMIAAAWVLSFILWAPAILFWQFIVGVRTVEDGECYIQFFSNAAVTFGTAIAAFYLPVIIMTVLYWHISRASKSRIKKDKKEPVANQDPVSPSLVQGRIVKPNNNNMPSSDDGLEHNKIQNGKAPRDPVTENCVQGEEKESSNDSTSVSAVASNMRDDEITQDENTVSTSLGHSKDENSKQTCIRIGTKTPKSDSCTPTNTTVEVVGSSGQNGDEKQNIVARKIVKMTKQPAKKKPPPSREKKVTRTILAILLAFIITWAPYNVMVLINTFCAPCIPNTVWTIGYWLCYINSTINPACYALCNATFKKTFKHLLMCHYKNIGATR
Experimental: as §1, §2, §3, §4

Chain of RXFP4 (h) (agonist radioligand) (Q8TDU9 whole entry): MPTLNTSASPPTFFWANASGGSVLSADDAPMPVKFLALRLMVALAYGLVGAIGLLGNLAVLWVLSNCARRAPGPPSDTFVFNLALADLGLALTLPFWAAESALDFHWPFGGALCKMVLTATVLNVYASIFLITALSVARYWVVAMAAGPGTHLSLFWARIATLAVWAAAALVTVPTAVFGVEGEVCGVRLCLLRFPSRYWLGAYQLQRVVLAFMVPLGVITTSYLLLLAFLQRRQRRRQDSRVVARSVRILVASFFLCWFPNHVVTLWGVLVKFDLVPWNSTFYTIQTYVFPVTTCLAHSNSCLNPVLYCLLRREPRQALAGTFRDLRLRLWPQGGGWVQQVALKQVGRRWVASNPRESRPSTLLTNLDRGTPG

## CN1CCCC(O)C1C(c1ccccc1)c1ccccc1 (stereo not shown) [Benedin, 2-benzhydryl-3-hydroxy-N-methyl-piperidine]
[1]
  % Inhibition at 10^−5M Benedin: weakly bind
[1]; 10^−5 M, read-out: % Inhibition at 10^−5M Benedin
  inhibition at 10 µM: 26.3%
[2]
  inhibition at 10 µM: 39.2%
[3]
  inhibition at 10 µM: 65%

Source: patent publication US20240316023A1, “BENEDIN, PIPERIDINE, 2-BENZHYDRYL-3-HYDROXY-N-METHYL-, HYDROCHLORIDE AND DERIVATIVES THEREOF FOR USE IN TREATING KLEINE-LEVIN SYNDROME” (priority 2021, published 2024)
